Assay results reported in patent US10889569B2, “Condensed ring group azacyclobutyl triazole derivative, preparation method therefor and use thereof in medicine” (Jiangsu Hengrui Medicine Co., Ltd., priority 2016, dated 2021).

What was measured:
human V1aR = human V1aR (Homo sapiens (Human), UniProt P37288); test: Inhibition activity on human V1aR (Fluo-4 calcium assay, HEK293/human V1aR stably transfected cells); format: cell-based; settings: vasopressin 3 nM
Summary of the method: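 Stable HEK293/human V1aR cells, 25,000 cells/well, loaded with Fluo-4 for 30 minutes at 37° C. then 10 minutes room temperature; compounds (formulated at 10^1–10^6 nM) added 10 minutes before 3 nM vasopressin. Calcium fluorescence read immediately at 494/516; IC50 from concentration–signal curves.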

[1] = Pharmacokinetics assay in rats after intragastrical administration; format: in vivo, SD rats; settings: Sprague-Dawley, rat, plasma, po, 30 mg/kg, intragastric, male rats; for Vd/F: read-out: Apparent distribution volume Vz/F; for AUC: read-out: Area under curve AUC; for CL/F: read-out: Clearance CLz/F; for half-life: read-out: Half-life T1/2 (converted); for Cmax: read-out: Plasma concentration Cmax; for MRT: read-out: Residence time MRT
Summary of the method: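 Fasted male SD rats (3 per compound) received 30.0 mg/kg by gavage […] in 2.5% DMSO/97.5% of 10% solutol HS-15. Orbital blood was taken pre-dose and 0.5-24 h; plasma was acetonitrile-precipitated with camptothecin internal standard and quantified by LC/MS/MS.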

human OTR = human OTR (Homo sapiens, UniProt P30559); test: Inhibition activity on human OTR (Fluo-4 calcium assay, HEK293/human OTR stably transfected cells); format: cell-based; settings: oxytocin 3 nM
Summary of the method: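 HEK293 cells stably expressing human OTR, loaded with Fluo-4 for 30 min at 37 °C, were preincubated 10 min at room temperature with compound (stocks 10^1–10^6 nM). Oxytocin (3 nM as added) then triggered calcium signal, read immediately at 494/516; IC50 fitted from fluorescence versus concentration.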

Sequence of human V1aR (P37288 whole entry): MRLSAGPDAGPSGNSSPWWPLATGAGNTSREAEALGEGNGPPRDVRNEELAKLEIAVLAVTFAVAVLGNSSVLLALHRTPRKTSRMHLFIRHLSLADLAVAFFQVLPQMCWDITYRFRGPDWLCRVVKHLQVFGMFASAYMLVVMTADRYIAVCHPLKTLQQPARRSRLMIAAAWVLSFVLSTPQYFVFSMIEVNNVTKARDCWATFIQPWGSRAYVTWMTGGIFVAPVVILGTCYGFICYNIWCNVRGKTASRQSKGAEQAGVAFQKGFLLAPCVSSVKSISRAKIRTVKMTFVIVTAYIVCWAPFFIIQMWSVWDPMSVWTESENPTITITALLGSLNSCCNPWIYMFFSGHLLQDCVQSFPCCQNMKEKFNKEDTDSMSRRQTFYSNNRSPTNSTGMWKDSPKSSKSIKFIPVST

COCc1nnc(N2CC(c3cccc4cc(F)ccc34)C2)n1-c1ccc(OC)nc1 [Example 2, 5-(3-(3-(6-Fluoronaphthalen-1-yl)azetidin-1-yl)-5-(methoxymethyl)-4H-1,2,4-triazol-4-yl)-2-methoxypyridine]
IC50 (human V1aR): 4.5 µM
Vd/F [1]: 5.29 ± 3.44 L/kg
AUC [1]: 8580 ± 3560 ng·h/mL
CL/F [1]: 63.8 ± 26.5 mL/min/kg
half-life [1]: 0.91 ± 0.25 h
Cmax [1]: 3930 ± 3030 ng/mL
MRT [1]: 2.46 ± 1.44 h
IC50 (human OTR): 0.002 µM

COCc1nnc(N2CC(n3cc(C)c4cc(F)ccc43)C2)n1-c1ccc(OC)nc1 [Example 17, 5-Fluoro-1-(1-(5-(methoxymethyl)-4-(6-methoxypyridin-3-yl)-4H-1,2,4-triazol-3-yl)azetidin-3-yl)-3-methyl-1H-indole]
IC50 (human V1aR): 4.4 µM
Vd/F [1]: 13.7 ± 3.83 L/kg
AUC [1]: 11200 ± 4390 ng·h/mL
CL/F [1]: 48 ± 19 mL/min/kg
half-life [1]: 3.35 ± 0.399 h
Cmax [1]: 2020 ± 580 ng/mL
MRT [1]: 5.08 ± 0.552 h
IC50 (human OTR): 0.064 µM
